Consider one molecule from publication PMC11942905, “Identification of a Selective Inhibitor of Human NFS1, a Cysteine Desulfurase Involved in Fe-S Cluster Assembly, via Structure-Based Virtual Screening” (International Journal of Molecular Sciences, 2025).

The target of one experiment is T1, human NFS1 (Homo sapiens, UniProt Q9Y697).
T1 construct: His tag (N); made in house; host or cells: E. coli BL21(DE3)
As to the kind of experiment: NFS1 inhibition assay (H2S-producing, methylene blue). The class given is biochemical. The procedure: The 42 candidate compounds were tested for their inhibitory effects on human NFS1 using an in vitro H2S-producing assay. […] Subsequently, the effects of the selected compounds (100 µM) on human NFS1 activity were evaluated.
The activity of NFS1 was determined using a methylene blue assay as described previously, with some modifications. Briefly, reaction mixtures (200 μL) containing 50 mM of Tris-HCl (pH 8.0), 10 μM of PLP, 1 mM of DTT, and 10 μg of NFS1 were preincubated at 37 °C for 3 min. The reaction was then initiated by adding 1 mM of cysteine. After 15 min of incubation at 37 °C, the reaction was quenched by adding 25 μL of 20 mM N,N-dimethyl-p-phenylenediamine in 7.2 M of HCl and 25 μL of 30 mM FeCl3 in 1.2 M of HCl. Subsequently, the reaction mixtures were incubated for another 15 min at 37 °C, followed by centrifugation at 12,000 rpm for 10 minutes to remove the precipitates. The absorbance of the supernatant was measured at 670 nm. A reaction mixture without the substrate cysteine was used as the negative control. The H2S concentration was calculated based on a standard curve prepared using various concentrations of sodium sulfide (Na2S).
For the NFS1 inhibition assays, all test compounds were dissolved in dimethyl sulfoxide (DMSO) to prepare 10 mM stock solutions, which were stored at −80 °C. The stock solutions were diluted to the appropriate concentrations with 50 mM of Tris-HCl (pH 8.0) as required for the experiments. A reaction mixture containing DMSO but no test compounds was used as a negative control. The dose-dependent effects of the inhibitors on NFS1 activity were determined using the methylene blue assay described above. The IC50 values of the inhibitors were calculated by adding different concentrations of the inhibitors to the enzyme reaction mixtures.

The next experiment deals with T2, NFS1 H156A (Homo sapiens, UniProt Q9Y697, H156A).
T2 construct: His tag (N); made in house; host or cells: E. coli BL21(DE3)
T2 sequence (Q9Y697 56-457 H156A): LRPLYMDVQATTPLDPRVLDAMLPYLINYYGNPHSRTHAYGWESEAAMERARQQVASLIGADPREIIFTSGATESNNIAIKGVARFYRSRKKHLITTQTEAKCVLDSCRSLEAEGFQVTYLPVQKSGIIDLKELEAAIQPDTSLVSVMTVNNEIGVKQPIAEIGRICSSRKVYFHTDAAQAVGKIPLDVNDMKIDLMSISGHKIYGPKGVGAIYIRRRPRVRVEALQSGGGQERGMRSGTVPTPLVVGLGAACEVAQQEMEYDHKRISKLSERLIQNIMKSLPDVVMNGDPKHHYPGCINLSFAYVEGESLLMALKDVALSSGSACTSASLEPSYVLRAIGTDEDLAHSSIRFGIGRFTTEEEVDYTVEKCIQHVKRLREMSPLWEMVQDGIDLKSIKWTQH
As to the kind of experiment: H2S-producing assay, NFS1 H156A mutant. The class given is biochemical. Here is the method:
(§1) To further validate the accuracy of the simulated results, the residues Cys158, Glu387, Lys157, and His156 were mutated to alanine using site-directed mutagenesis.
(§2) For the expression and purification of NFS1Δ1-55/ISD11 in E. coli, the plasmid pNFS1-ISD11 was transformed into BL21(DE3) cells. The cells were grown at 37 °C in 1 L cultures of LB medium containing chloramphenicol (50 μg/ml) until the optical density at 600 nm (OD600) reached 0.6–0.8. Protein expression was induced by adding 0.1 mM isopropyl β-D-1-thiogalactopyranoside (IPTG), followed by an additional 12 h of incubation at 25 °C. The cells were harvested by centrifugation at 8000 rpm for 10 min at 4 °C, then resuspended in lysis buffer containing 50 mM phosphate-buffered saline (PBS, pH 7.4), 500 mM NaCl, 100 mg/L lysozyme, 30 mM imidazole, and 1 mM phenylmethanesulfonyl fluoride (PMSF). The resuspended cells were incubated on ice for 1 h, followed by sonication using an Ultrasonic Cell Disruption System (Scientz, Ningbo, China). The supernatant was obtained by centrifugation at 12,000 rpm for 30 min at 4 °C and was loaded onto a HisTrap FF column (GE Healthcare, Chicago, MA, USA) pre-equilibrated with lysis buffer. […] The protein concentration was measured using a BCA protein assay reagent kit (TransGen Biotech, Beijing, China).

For a further experiment, the system named is A549 cells. As to the kind of experiment: Lipid peroxide (LPO) content. The class given is cell-based, human. To be noted: 48 h, Erastin 2.5 µM, Compound 53 50 µM, 2-AAPA 20 µM, alone or combined. Here is the method:
A549 cells were seeded in 10 cm dishes at a density of 2 × 10^6 cells per dish and cultured until they reached 40–60% confluence. […] Lipid peroxidation (LPO) levels were measured using a Lipid Peroxide (LPO) Content Assay Kit (Solarbio, China) following the manufacturer’s instructions.

The next experiment concerns the target T3, NFS1 C158A (Homo sapiens, UniProt Q9Y697, C158A).
T3 construct: His tag (N); made in house; host or cells: E. coli BL21(DE3)
Briefly: H2S-producing assay, NFS1 C158A mutant. The class given is biochemical. Here is the method: as §1, §2

T1 sequence (Q9Y697 56-457): as the sequence (Q9Y697 56-457 H156A) above, with A101H counted along it
T3 sequence (Q9Y697 56-457 C158A): as the sequence (Q9Y697 56-457 H156A) above, with A101H, C103A counted along it

For orientation: IC50 means the concentration needed to halve the response being measured. A high value points to weaker potency. In general, Ki refers to the equilibrium dissociation constant of an inhibitor or competing ligand from its target. One may read the Vmax as the rate approached at saturating substrate. As usually defined, the inhibition is the drop in the measured response relative to a control, in per cent. As for `COc1cc(/C=N/NC(=O)COc2ccc(Cl)cc2Cl)ccc1O` [Compound 53], the IC50 on human NFS1 turned out to be 40.5 ± 3.85 µM; on NFS1 H156A it was 97.3 ± 1.39 µM; against NFS1 C158A, 114 ± 3.45 µM. Moreover, the Ki at human NFS1 turned out to be 6.4 ± 0.48 µM. In addition, the Vmax at human NFS1 (inhibitor 5 μM) was 144.2 ± 2.81 nmol/min/mg; on human NFS1 (inhibitor 10 μM) it was 143.3 ± 4.06 nmol/min/mg; at human NFS1 (inhibitor 20 μM) it was 144.1 ± 4.88 nmol/min/mg; at human NFS1 (inhibitor 50 μM), 143.5 ± 4.31 nmol/min/mg; on human NFS1 (inhibitor 100 μM), 143.8 ± 8.75 nmol/min/mg. Further, the inhibition at 50 µM on human NFS1 (read-out: inhibition of NFS1 activity) lay in the range of 40 to 50%. In addition, the “Inhibition Type” value at human NFS1 (versus substrate L-cysteine) was “competitive inhibitors”. In addition, the “intracellular lipid peroxide (LPO) levels” value with A549 cells was “no significant changes”.
